Assay results reported in ChEMBL document CHEMBL3232736, “Antiproliferative activities of halogenated thieno[3,2-d]pyrimidines” (Bioorg Med Chem, 2014).
In brackets after ≈: the same amount, converted by molar mass. Activity calls are given as the source filed them. The rule behind the calls is not given here.

Experiments:
L1210 [1] = assay: Cytotoxicity against mouse L1210 cells assessed as reduction in cell number after 48 hrs by cell counting assay; assay type: functional, cell-based; conditions: L1210, 48 h
Candida albicans [2] = assay: Antifungal activity against Candida albicans ATCC 10231 assessed as growth inhibition at 100 uM after 16 to 20 hrs by microbroth dilution method; assay type: functional
Cryptococcus neoformans [3] = assay: Antifungal activity against Cryptococcus neoformans VANC-R265 assessed as growth inhibition at 100 uM after 48 hrs by microbroth dilution method; assay type: functional
CCRF-CEM = assay: Cytotoxicity against human CCRF-CEM cells assessed as reduction in cell number after 72 hrs by cell counting assay; assay type: functional, cell-based
Escherichia coli [4] = assay: Antibacterial activity against Escherichia coli ATCC 25922 assessed as growth inhibition at 100 uM after 16 to 20 hrs by microbroth dilution method; assay type: functional, organism-based
Staphylococcus aureus [5] = assay: Antibacterial activity against methicillin-resistant Staphylococcus aureus subsp. aureus ATCC 43300 assessed as growth inhibition at 100 uM after 16 to 20 hrs by microbroth dilution method; assay type: functional, organism-based
HeLa [6] = assay: Cytotoxicity against human HeLa cells assessed as reduction in cell number after 72 hrs by cell counting assay; assay type: functional, cell-based
Cryptococcus neoformans [7] = assay: Antifungal activity against Cryptococcus neoformans JEC20 assessed as growth inhibition at 100 uM after 48 hrs by microbroth dilution method; assay type: functional
Cryptococcus neoformans [8] = assay: Antifungal activity against Cryptococcus neoformans B4546 assessed as growth inhibition at 100 uM after 48 hrs by microbroth dilution method; assay type: functional
Cryptococcus neoformans [9] = assay: Antifungal activity against Cryptococcus neoformans ATCC 66031 assessed as growth inhibition at 100 uM after 48 hrs by microbroth dilution method; assay type: functional
Bacillus spizizenii [10] = assay: Antibacterial activity against Bacillus subtilis ATCC 6633 assessed as growth inhibition at 100 uM after 16 to 20 hrs by microbroth dilution method; assay type: functional
L1210 [11] = assay: Cytotoxicity against mouse L1210 cells assessed as reduction in cell viability after 48 hrs by MTT assay; assay type: functional, cell-based; conditions: L1210, 48 h
L1210 [12] = assay: Cell cycle arrest in mouse L1210 cells at 5.4 uM after 24 to 48 hrs by propidium iodide staining-based flow cytometric analysis; assay type: functional
HeLa [13] = assay: Cytotoxicity against human HeLa cells assessed as reduction in cell number; assay type: functional
Cryptococcus neoformans [14] = assay: Antifungal activity against Cryptococcus neoformans JEC20 assessed as growth inhibition after 48 hrs by microbroth dilution method; assay type: functional; conditions: JEC20, 48 h
Cryptococcus neoformans [15] = assay: Antifungal activity against Cryptococcus neoformans B4546 assessed as growth inhibition after 48 hrs by microbroth dilution method; assay type: functional; conditions: B4546, 48 h
Enterococcus faecalis [16] = assay: Antibacterial activity against vancomycin-resistant Enterococcus faecalis ATCC 51299 assessed as growth inhibition at 100 uM after 16 to 20 hrs by microbroth dilution method; assay type: functional, organism-based
Candida albicans [17] = assay: Antifungal activity against Candida albicans ATCC 10231 assessed as growth inhibition after 16 to 20 hrs by microbroth dilution method; assay type: functional
HEL = assay: Cytotoxicity against human HEL cells assessed as reduction in cell number by cell counting assay; assay type: functional
L1210 [18] = assay: Induction of apoptosis in mouse L1210 cells assessed as early apoptosis at 5.4 uM after 48 hrs by Annexin-V/7-AAD staining-based flow cytometric analysis (rvb = 3.36%); assay type: functional
Vero = assay: Cytotoxicity against African green monkey Vero cells assessed as reduction in cell number; assay type: cell-based; conditions: chlorocebus sabaeus
Pseudomonas aeruginosa [19] = assay: Antibacterial activity against Pseudomonas aeruginosa ATCC 27853 assessed as growth inhibition at 100 uM after 16 to 20 hrs by microbroth dilution method; assay type: functional, organism-based
L1210 [20] = assay: Induction of apoptosis in mouse L1210 cells assessed as necrotic cell level at 5.4 uM after 48 hrs by Annexin-V/7-AAD staining-based flow cytometric analysis (reference value: 8.13%); assay type: functional
L1210 [21] = assay: Induction of apoptosis in mouse L1210 cells assessed as viable cell level at 5.4 uM after 48 hrs by Annexin-V/7-AAD staining-based flow cytometric analysis (reference value: 83%); assay type: functional
L1210 [22] = assay: Induction of apoptosis in mouse L1210 cells assessed as late apoptosis at 5.4 uM after 48 hrs by Annexin-V/7-AAD staining-based flow cytometric analysis (reference value: 4.46%); assay type: functional
Escherichia coli [23] = assay: Antibacterial activity against Escherichia coli ATCC 25922 assessed as growth inhibition after 16 to 20 hrs by microbroth dilution method; assay type: functional
Bacillus spizizenii [24] = assay: Antibacterial activity against Bacillus subtilis ATCC 6633 assessed as growth inhibition after 16 to 20 hrs by microbroth dilution method; assay type: functional
Enterococcus faecalis [25] = assay: Antibacterial activity against vancomycin-resistant Enterococcus faecalis ATCC 51299 assessed as growth inhibition after 16 to 20 hrs by microbroth dilution method; assay type: functional
Pseudomonas aeruginosa [26] = assay: Antibacterial activity against Pseudomonas aeruginosa ATCC 27853 assessed as growth inhibition after 16 to 20 hrs by microbroth dilution method; assay type: functional
Staphylococcus aureus [27] = assay: Antibacterial activity against methicillin-resistant Staphylococcus aureus subsp. aureus ATCC 43300 assessed as growth inhibition after 16 to 20 hrs by microbroth dilution method; assay type: functional

`Clc1ncc2sccc2n1` was tested, and the IC50 (L1210 [1]) was over 250 µM, the inhibition (Candida albicans [2]) was “inactive” and the inhibition (Cryptococcus neoformans [3]) was “inactive”. For the same molecule, the IC50 (CCRF-CEM) was over 250 µM, the inhibition (Escherichia coli [4]) was “inactive” and the inhibition (Staphylococcus aureus [5]) was “inactive”. The IC50 (HeLa [6]) was over 250 µM, the inhibition (Cryptococcus neoformans [7]) was “inactive” and the inhibition (Cryptococcus neoformans [8]) was “inactive”. The inhibition (Cryptococcus neoformans [9]) was “inactive” and the inhibition (Bacillus spizizenii [10]) was “inactive”.

In the case of `O=c1[nH]cc(F)c(=O)[nH]1` [FLUOROURACIL], the IC50 (L1210 [1]) is reported as 0.33 µM.

Molecule `O=c1[nH]c(=O)c2scc(Br)c2[nH]1` has an IC50 (L1210 [1]) of over 250 µM, an IC50 (CCRF-CEM) of over 250 µM and an IC50 (HeLa [6]) of over 250 µM.

`Clc1nc(Cl)c2scc(Br)c2n1` was tested, and the IC50 (L1210 [11]) was 5.4 µM, the Activity (L1210 [12]) was “inactive” and the MIC99 (HeLa [13]) was 20 µM (≈ 5.68 µg/mL). For the same molecule, the IC50 (L1210 [1]) was 5.4 µM, the MIC95 (Cryptococcus neoformans [14]) was 5.8 µM (≈ 1.65 µg/mL) and the IC50 (CCRF-CEM) was 14 µM. For the same molecule, the inhibition (Escherichia coli [4]) was “inactive”, the MIC95 (Cryptococcus neoformans [15]) was 7 µM (≈ 1.99 µg/mL) and the inhibition (Enterococcus faecalis [16]) was “inactive”. The inhibition (Staphylococcus aureus [5]) was “inactive”, the MIC95 (Candida albicans [17]) was 10.7 µM (≈ 3.04 µg/mL) and the IC50 (HeLa [6]) was 4.3 µM. For the same molecule, the MIC99 (HEL) was 20 µM (≈ 5.68 µg/mL), the Activity (L1210 [18]) was 33.3% and the MIC99 (Vero) was 20 µM (≈ 5.68 µg/mL). For the same molecule, the inhibition (Pseudomonas aeruginosa [19]) was “inactive”, the Activity (L1210 [20]) was 1.84% and the inhibition (Bacillus spizizenii [10]) was “inactive”. The Activity (L1210 [21]) was 43.1% and the Activity (L1210 [22]) was 21.8%.

For `COc1nc(OC)c2scc([C@H]3C[C@H](O)[C@@H](CO)O3)c2n1`, the IC50 (L1210 [1]) was over 250 µM, the IC50 (CCRF-CEM) was over 250 µM and the IC50 (HeLa [6]) was over 250 µM.

In the case of `CN(C)[C@@H]1C(O)=C(C(N)=O)C(=O)[C@@]2(O)C(O)=C3C(=O)c4c(O)cccc4[C@@](C)(O)[C@H]3C[C@@H]12` [TETRACYCLINE], the MIC95 (Escherichia coli [23]) is reported as 10 µg/mL (≈ 22.5 µM), the MIC95 (Bacillus spizizenii [24]) is reported as 10 µg/mL (≈ 22.5 µM) and the MIC95 (Enterococcus faecalis [25]) is reported as 10 µg/mL (≈ 22.5 µM). For the same molecule, the MIC95 (Pseudomonas aeruginosa [26]) was 50 µg/mL (≈ 113 µM) and the MIC95 (Staphylococcus aureus [27]) was 10 µg/mL (≈ 22.5 µM).

`COc1nc(OC)c2scc([C@H]3CC(=O)[C@@H](CO)O3)c2n1` gave an IC50 (L1210 [1]) of over 250 µM, an IC50 (CCRF-CEM) of over 250 µM and an IC50 (HeLa [6]) of over 250 µM.

Molecule `Clc1nc(-n2cncn2)c2sccc2n1` has an IC50 (L1210 [1]) of over 250 µM, an IC50 (CCRF-CEM) of over 250 µM and an IC50 (HeLa [6]) of over 250 µM.
